PubChem BioAssay (NCI)
“And” between values parts separate entries of the source, which are not always exact repeats. Identical values can stand only once.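 In this assay, cells in 96-well plates receive the compound at five concentrations for 48 hours. Endpoints are linearly interpolated between the surrounding concentrations. GI50 marks 50% less growth. The concentration for full growth arrest is given as TGI.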

Tests used:
Assay in all cases: NCI-60 cell line screen, 48 h
[1] = tested on: NCI-H460 lung
[2] = tested on: M14 melanoma
[3] = tested on: SF-539 CNS
[4] = tested on: UACC-62 melanoma
[5] = tested on: DU-145 prostate
[6] = tested on: MOLT-4 leukemia
[7] = tested on: EKVX NSCLC
[8] = tested on: SF-268 CNS
[9] = tested on: PC-3 prostate
[10] = tested on: T-47D breast

## CC(=O)O[C@@]12CO[C@@H]1C[C@H](O)[C@@]1(C)C(=O)[C@H](O)C3=C(C)[C@@H](OC(=O)[C@H](O)[C@@H](NC(=O)OC(C)(C)C)c4ccccc4)C[C@@](O)([C@@H](OC(=O)c4ccccc4)[C@H]21)C3(C)C
[1]
  GI50: 0.000351 µM
  TGI: 41 µM
[2]
  GI50: 0.0154 µM and 0.0205 µM
  TGI: 0.281 µM
[3]
  GI50: 0.00666 µM and 0.0056 µM
  TGI: 0.0612 µM and 0.0251 µM
[4]
  GI50: 0.0141 µM and 0.112 µM
[5]
  TGI: 78.2 µM
[6]
  GI50: 0.0337 µM and 0.00877 µM
  TGI: 50.1 µM
[7]
  GI50: 0.0464 µM
[8]
  GI50: 0.0677 µM and 0.0392 µM
  TGI: 77.6 µM
[9]
  TGI: > 100 µM

## CCOC(=O)N1C2C=C(C)C(ON2C(=O)c2ccccc2)C2C(C)C(=O)N21 (stereo unspecified)
[1]
  TGI: > 100 µM
[2]
  TGI: > 100 µM
[3]
  TGI: > 100 µM
[4]
  TGI: > 100 µM
[6]
  TGI: > 100 µM
[7]
  TGI: > 100 µM
[8]
  TGI: > 100 µM

## CC(C)(O)C#Cc1ccc(/C=C/C(=O)c2ccccc2)s1
[1]
  GI50: 17.3 µM
  TGI: 33.5 µM
[10]
  GI50: 14.5 µM
  TGI: 67.9 µM
[3]
  GI50: 15.8 µM
  TGI: 29.2 µM
[4]
  GI50: 13.7 µM
  TGI: 26.6 µM
[5]
  GI50: 14.9 µM
  TGI: 28.1 µM
[6]
  GI50: 16.8 µM
  TGI: 43.6 µM
[7]
  GI50: 17.9 µM
  TGI: 32 µM
[8]
  GI50: 16.7 µM
  TGI: 32.8 µM
[9]
  GI50: 13.6 µM
  TGI: 29.7 µM

## CC(=O)N1c2ccccc2C2=CC3C4C(=O)N(c5ccccc5)C(=O)C4C21C1C(=O)N(c2ccccc2)C(=O)C31 (stereo unspecified)
[1]
  TGI: > 100 µM
[3]
  TGI: 6.66 µM
[4]
  TGI: > 100 µM
[6]
  TGI: > 100 µM
[8]
  TGI: > 100 µM

## Cn1c2c(c3ccccc31)CCN(CCN1CCN(c3ccccc3)CC1)C2=O
[1]
  TGI: > 100 µM
[2]
  TGI: > 100 µM
[3]
  TGI: > 100 µM
[4]
  TGI: > 100 µM
[6]
  TGI: > 100 µM
[7]
  TGI: > 100 µM
[8]
  TGI: > 100 µM

## COc1ccc2c(c1O)C13CCN(C)C(C2)C1CCC1(C3)OCCO1 (stereo unspecified)
[1]
  TGI: > 100 µM
[2]
  TGI: > 100 µM
[10]
  TGI: > 100 µM
[4]
  TGI: > 100 µM
[5]
  TGI: > 100 µM
[6]
  TGI: > 100 µM
[7]
  TGI: > 100 µM
[8]
  TGI: > 100 µM
[9]
  TGI: > 100 µM

## N#Cc1cccc(OCc2nc(N)nc(N)c2-c2ccc(Cl)c(Cl)c2)c1
[1]
  GI50: 0.435 µM
  TGI: > 100 µM
[2]
  GI50: 0.639 µM
  TGI: > 100 µM
[10]
  GI50: 8.25 µM
  TGI: > 100 µM
[3]
  GI50: 1.43 µM
  TGI: 65.4 µM
[4]
  GI50: 0.442 µM
  TGI: > 100 µM
[5]
  GI50: 4.08 µM
  TGI: > 100 µM
[6]
  GI50: 2.83 µM
  TGI: > 100 µM
[8]
  GI50: 3.05 µM
  TGI: > 100 µM
[9]
  GI50: 0.604 µM
  TGI: > 100 µM

## Cc1cc(NCCCNc2ccnc3cc(Cl)ccc23)nc(N2CCN(C)CC2)n1
[1]
  GI50: 2.66 µM
  TGI: 10.4 µM
[2]
  GI50: 1.94 µM
  TGI: 3.61 µM
[10]
  GI50: 6.7 µM
  TGI: 30.9 µM
[3]
  GI50: 1.84 µM
  TGI: 3.6 µM
[4]
  GI50: 2.05 µM
  TGI: 4.55 µM
[5]
  GI50: 5.5 µM
  TGI: 17.9 µM
[6]
  GI50: 2.46 µM
  TGI: 15.8 µM
[8]
  GI50: 6.74 µM
  TGI: 26.3 µM

## Cc1noc2cccc(OCc3ccccc3)c12
[1]
  TGI: > 100 µM
[2]
  TGI: > 100 µM
[3]
  TGI: > 100 µM
[4]
  TGI: > 100 µM
[6]
  TGI: > 100 µM
[7]
  TGI: > 100 µM
[8]
  TGI: > 100 µM

## CCOC(=O)/C(=N\OC)C(O)C(F)(F)F (stereo unspecified)
[2]
  TGI: > 100 µM
[10]
  TGI: > 100 µM
[3]
  TGI: > 100 µM
[4]
  TGI: > 100 µM
[5]
  TGI: > 100 µM
[6]
  TGI: > 100 µM
[7]
  TGI: > 100 µM
[8]
  TGI: > 100 µM
[9]
  TGI: > 100 µM

## O=C(O)C1=CCCc2ccc3ccccc3c21
[1]
  TGI: > 100 µM
[2]
  TGI: > 100 µM
[3]
  TGI: > 100 µM
[4]
  TGI: > 100 µM
[6]
  TGI: > 100 µM
[7]
  TGI: > 100 µM
[8]
  TGI: > 100 µM

## Cc1cc2cc3cc(C)c(N(C)C)cc3[n+](C)c2cc1N(C)C
[1]
  GI50: 2.65 µM
  TGI: 11 µM
[2]
  GI50: 4.68 µM
  TGI: 19.8 µM
[10]
  GI50: 2.94 µM
  TGI: > 100 µM
[3]
  GI50: 3.05 µM
  TGI: 12.1 µM
[4]
  GI50: 4.91 µM
  TGI: 23.6 µM
[5]
  GI50: 4.87 µM
  TGI: 31.9 µM
[6]
  GI50: 3.58 µM
  TGI: > 100 µM
[8]
  GI50: 4.1 µM
  TGI: 20.5 µM
[9]
  GI50: 2.46 µM
  TGI: 33.8 µM

## [Cl][Sn]([Cl])([c]1ccccc1)[c]1ccccc1
[2]
  GI50: 15.3 µM
  TGI: 29 µM
[3]
  GI50: 16 µM
  TGI: 29.4 µM
[4]
  GI50: 2.87 µM
  TGI: 9.08 µM
[6]
  GI50: 5.25 µM
  TGI: 36.9 µM
[7]
  GI50: 17.8 µM
  TGI: 32.1 µM
[8]
  GI50: 13.2 µM
  TGI: 30.4 µM

## NC(=O)C#CC#CC#CCO
[1]
  TGI: 19.3 µM
[2]
  TGI: 3.63 µM
[4]
  TGI: 4.32 µM
[6]
  TGI: 2.67 µM

## O=c1c2ccccc2c(Br)c(Br)c2ccccc12
[1]
  GI50: 14.5 µM
  TGI: 34.5 µM
[2]
  GI50: 4.8 µM
  TGI: 16.3 µM
[10]
  GI50: 4.43 µM
  TGI: 32.3 µM
[3]
  GI50: 13.3 µM
  TGI: 37.2 µM
[4]
  GI50: 18.3 µM
  TGI: 59.5 µM
[5]
  GI50: 4.02 µM
  TGI: 15.8 µM
[7]
  GI50: 14.2 µM
  TGI: 64.3 µM
[8]
  GI50: 8.89 µM
  TGI: 25 µM
[9]
  GI50: 10.1 µM
  TGI: 30.2 µM

## Cn1cc(C2=C(c3cn(CCO)c4ccccc34)C(=O)NC2=O)c2ccccc21
[1]
  GI50: 2.06 µM
  TGI: > 25 µM
[2]
  GI50: 2.12 µM
  TGI: > 25 µM
[10]
  GI50: 3.96 µM
  TGI: 13.1 µM
[3]
  GI50: 1.4 µM
  TGI: 8.9 µM
[4]
  GI50: 2.58 µM
  TGI: 7.99 µM
[5]
  GI50: 6.94 µM
  TGI: > 23.8 µM
[6]
  GI50: 1.36 µM
  TGI: 16.8 µM
[8]
  GI50: 4.19 µM
  TGI: 15.4 µM
[9]
  GI50: 4.59 µM
  TGI: > 25 µM

## CC/C(=C(/c1ccc(OCCN(C)C)cc1)c1ccc(OC(=O)CCC(=O)c2c(C)[nH]c(/C=C3\N=C(c4ccc[nH]4)C=C3OC)c2C)cc1)c1ccccc1
[1]
  GI50: 3.48 µM
  TGI: 14.1 µM
[2]
  GI50: 2.06 µM
  TGI: 4.92 µM
[10]
  GI50: 1.34 µM
  TGI: 7.79 µM
[3]
  GI50: 2.59 µM
  TGI: 9.26 µM
[4]
  GI50: 1.81 µM
  TGI: 3.78 µM
[5]
  GI50: 3.27 µM
  TGI: 16.8 µM
[6]
  GI50: 0.974 µM
  TGI: 4.25 µM
[8]
  GI50: 2.62 µM
  TGI: 17.8 µM
[9]
  GI50: 1.78 µM
  TGI: 17.1 µM

## N#CC(C(=O)/C(=N/NC(=O)c1ccccc1O)C(C#N)c1ccccc1)c1ccccc1 (stereo unspecified)
[1]
  TGI: > 100 µM
[2]
  TGI: > 100 µM
[3]
  TGI: > 100 µM
[4]
  TGI: > 100 µM
[7]
  TGI: > 100 µM
[8]
  TGI: > 100 µM
